From patent publication US20260250318A1, “COMPOSITIONS AND METHODS FOR CROSSING THE BLOOD BRAIN BARRIER” (VOYAGER THERAPEUTICS, INC., priority 2022, published 2026)

Tests used:
brain = test: Matured TTM-001 and TTM-002 variants, NGS enrichment in mouse brain; format: in vivo, mice; conditions: relative to AAV9 control
[1] = tested on: brains, heart, liver, muscle, and DRG of the NHPs; test: Maturation of TTM-001 and TTM-002 capsids, NGS enrichment in NHP tissues; format: in vivo; conditions: relative to AAV9 control
How it was run: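 Variants carry mutations within and flanking the loop IV peptide insert: positions 450–466 were triplet-randomized, while positions 449–466 received low-frequency point mutations. The combined pool went into two NHPs, and each peptide was scored by NGS enrichment ratio against AAV9.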

[2] = NGS fold-enrichment, mouse brain
[3] = NGS fold-enrichment of RNA, NHP brain
[4] = NGS fold-enrichment, NHP liver DNA
[5] = NGS fold-enrichment, NHP liver RNA
[6] = NGS fold-enrichment, NHP muscle
[7] = NGS fold-enrichment, brain of mice
[8] = NGS fold-enrichment, DRG of NHPs
[9] = NGS fold-enrichment, RNA, brain of NHPs
[10] = NGS fold-enrichment, heart of NHPs
[11] = NGS fold-enrichment, liver DNA of NHPs
[12] = NGS fold-enrichment, liver RNA of NHPs
[13] = NGS fold-enrichment, muscle of NHPs
[14] = NGS fold-enrichment of matured AAV capsid variants, NHP brain, RNA

KSELGHDSPHKSGQNQQT
Fold Enrichment relative to AAV9, Brain (Mouse) (brain; [2]): 13.285 fold | Fold Enrichment relative to AAV9, Brain (NHP) [1, 3]: 107.059 fold | Fold Enrichment relative to AAV9, DRG (NHP) ([1]; NGS fold-enrichment, NHP DRG): 0.000 fold | Fold Enrichment relative to AAV9, Heart (NHP) ([1]; NGS fold-enrichment, NHP heart): 0.005 fold | Fold Enrichment relative to AAV9, Liver DNA (NHP) [1, 4]: 0.055 fold | Fold Enrichment relative to AAV9, Liver RNA (NHP) [1, 5]: 0.000 fold | Fold Enrichment relative to AAV9, Muscle (NHP) [1, 6]: 0.000 fold

KNCLGSGSPHSKAQNQQT
Fold Enrichment relative to AAV9, Brain (Mouse) (brain; [7]): 82.488 fold | Fold Enrichment relative to AAV9, DRG (NHP) [1, 8]: 0.000 fold | Fold Enrichment relative to AAV9, Brain (NHP) [1, 9]: 61.442 fold | Fold Enrichment relative to AAV9, Heart (NHP) [1, 10]: 0.036 fold | Fold Enrichment relative to AAV9, Liver DNA (NHP) [1, 11]: 0.026 fold | Fold Enrichment relative to AAV9, Liver RNA (NHP) [1, 12]: 1.849 fold | Fold Enrichment relative to AAV9, Muscle (NHP) [1, 13]: 0.000 fold

KTTNGSGSPHSKAQYQHT
Fold Enrichment relative to AAV9, Brain (Mouse) (brain; [7]): 83.337 fold | Fold Enrichment relative to AAV9, DRG (NHP) [1, 8]: 0.000 fold | Fold Enrichment relative to AAV9, Brain (NHP) [1, 9]: 67.325 fold | Fold Enrichment relative to AAV9, Heart (NHP) [1, 10]: 0.000 fold | Fold Enrichment relative to AAV9, Liver DNA (NHP) [1, 11]: 0.080 fold | Fold Enrichment relative to AAV9, Liver RNA (NHP) [1, 12]: 1.378 fold | Fold Enrichment relative to AAV9, Muscle (NHP) [1, 13]: 0.000 fold

KTIEGHDSPHKSGRNQQT
Fold Enrichment relative to AAV9, Brain (Mouse) (brain; [2]): 7.818 fold | Fold Enrichment relative to AAV9, Brain (NHP) [1, 3]: 75.838 fold | Fold Enrichment relative to AAV9, DRG (NHP) ([1]; NGS fold-enrichment, NHP DRG): 0.000 fold | Fold Enrichment relative to AAV9, Heart (NHP) ([1]; NGS fold-enrichment, NHP heart): 0.065 fold | Fold Enrichment relative to AAV9, Liver DNA (NHP) [1, 4]: 0.079 fold | Fold Enrichment relative to AAV9, Liver RNA (NHP) [1, 5]: 0.000 fold | Fold Enrichment relative to AAV9, Muscle (NHP) [1, 6]: 0.017 fold

KTNNGGGSPHSKAQNLQT
Fold Enrichment relative to AAV9, Brain (Mouse) (brain; mouse brain): 80.506 fold | Fold Enrichment relative to AAV9, Brain (NHP) [1, 14]: 54.963 fold | Fold Enrichment relative to AAV9, DRG (NHP) ([1]; NHP DRG): 0.000 fold | Fold Enrichment relative to AAV9, Heart (NHP) ([1]; NHP heart): 0.000 fold | Fold Enrichment relative to AAV9, Liver DNA (NHP) ([1]; NHP liver, DNA): 0.089 fold | Fold Enrichment relative to AAV9, Liver RNA (NHP) ([1]; NHP liver, RNA): 0.000 fold | Fold Enrichment relative to AAV9, Muscle (NHP) ([1]; NHP muscle): 0.000 fold

KTINGHDSPHKSVQTHQT
Fold Enrichment relative to AAV9, Brain (Mouse) (brain; [2]): 7.519 fold | Fold Enrichment relative to AAV9, Brain (NHP) [1, 3]: 77.309 fold | Fold Enrichment relative to AAV9, DRG (NHP) ([1]; NGS fold-enrichment, NHP DRG): 0.237 fold | Fold Enrichment relative to AAV9, Heart (NHP) ([1]; NGS fold-enrichment, NHP heart): 0.062 fold | Fold Enrichment relative to AAV9, Liver DNA (NHP) [1, 4]: 0.116 fold | Fold Enrichment relative to AAV9, Liver RNA (NHP) [1, 5]: 0.000 fold | Fold Enrichment relative to AAV9, Muscle (NHP) [1, 6]: 0.000 fold

KTEYISGSPHSKAQNQQT
Fold Enrichment relative to AAV9, Brain (Mouse) (brain; mouse brain): 57.620 fold | Fold Enrichment relative to AAV9, Brain (NHP) [1, 14]: 57.891 fold | Fold Enrichment relative to AAV9, DRG (NHP) ([1]; NHP DRG): 0.000 fold | Fold Enrichment relative to AAV9, Heart (NHP) ([1]; NHP heart): 0.000 fold | Fold Enrichment relative to AAV9, Liver DNA (NHP) ([1]; NHP liver, DNA): 0.075 fold | Fold Enrichment relative to AAV9, Liver RNA (NHP) ([1]; NHP liver, RNA): 0.076 fold | Fold Enrichment relative to AAV9, Muscle (NHP) ([1]; NHP muscle): 0.000 fold

KAINGPDSPHKSGQKQQT
Fold Enrichment relative to AAV9, Brain (Mouse) (brain; [2]): 10.395 fold | Fold Enrichment relative to AAV9, Brain (NHP) [1, 3]: 78.213 fold | Fold Enrichment relative to AAV9, DRG (NHP) ([1]; NGS fold-enrichment, NHP DRG): 0.464 fold | Fold Enrichment relative to AAV9, Heart (NHP) ([1]; NGS fold-enrichment, NHP heart): 0.047 fold | Fold Enrichment relative to AAV9, Liver DNA (NHP) [1, 4]: 0.162 fold | Fold Enrichment relative to AAV9, Liver RNA (NHP) [1, 5]: 0.323 fold | Fold Enrichment relative to AAV9, Muscle (NHP) [1, 6]: 0.000 fold

KTFHGSGSPHSKTQNQQT
Fold Enrichment relative to AAV9, Brain (Mouse) (brain; [7]): 51.119 fold | Fold Enrichment relative to AAV9, Brain (Mouse) (brain; [2]): 51.119 fold | Fold Enrichment relative to AAV9, Brain (NHP) [1, 3]: 94.714 fold | Fold Enrichment relative to AAV9, DRG (NHP) [1, 8]: 0.000 fold | Fold Enrichment relative to AAV9, DRG (NHP) ([1]; NGS fold-enrichment, NHP DRG): 0.000 fold | Fold Enrichment relative to AAV9, Heart (NHP) ([1]; NGS fold-enrichment, NHP heart): 0.210 fold | Fold Enrichment relative to AAV9, Liver DNA (NHP) [1, 4]: 0.000 fold | Fold Enrichment relative to AAV9, Liver RNA (NHP) [1, 5]: 0.000 fold | Fold Enrichment relative to AAV9, Muscle (NHP) [1, 6]: 0.120 fold | Fold Enrichment relative to AAV9, Brain (NHP) [1, 9]: 94.714 fold | Fold Enrichment relative to AAV9, Heart (NHP) [1, 10]: 0.210 fold | Fold Enrichment relative to AAV9, Liver DNA (NHP) [1, 11]: 0.000 fold | Fold Enrichment relative to AAV9, Liver RNA (NHP) [1, 12]: 0.000 fold | Fold Enrichment relative to AAV9, Muscle (NHP) [1, 13]: 0.120 fold

KTEKASGSPHSKAQNQQT
Fold Enrichment relative to AAV9, Brain (Mouse) (brain; [7]): 90.390 fold | Fold Enrichment relative to AAV9, Brain (Mouse) (brain; [2]): 90.390 fold | Fold Enrichment relative to AAV9, Brain (NHP) [1, 3]: 80.285 fold | Fold Enrichment relative to AAV9, DRG (NHP) [1, 8]: 0.000 fold | Fold Enrichment relative to AAV9, DRG (NHP) ([1]; NGS fold-enrichment, NHP DRG): 0.000 fold | Fold Enrichment relative to AAV9, Heart (NHP) ([1]; NGS fold-enrichment, NHP heart): 0.041 fold | Fold Enrichment relative to AAV9, Liver DNA (NHP) [1, 4]: 0.261 fold | Fold Enrichment relative to AAV9, Liver RNA (NHP) [1, 5]: 0.000 fold | Fold Enrichment relative to AAV9, Muscle (NHP) [1, 6]: 0.000 fold | Fold Enrichment relative to AAV9, Brain (NHP) [1, 9]: 80.285 fold | Fold Enrichment relative to AAV9, Heart (NHP) [1, 10]: 0.041 fold | Fold Enrichment relative to AAV9, Liver DNA (NHP) [1, 11]: 0.261 fold | Fold Enrichment relative to AAV9, Liver RNA (NHP) [1, 12]: 0.000 fold | Fold Enrichment relative to AAV9, Muscle (NHP) [1, 13]: 0.000 fold

KTINGHGSPHSKAQNPQT
Fold Enrichment relative to AAV9, Brain (Mouse) (brain; [2]): 11.001 fold | Fold Enrichment relative to AAV9, Brain (NHP) [1, 3]: 83.478 fold | Fold Enrichment relative to AAV9, DRG (NHP) ([1]; NGS fold-enrichment, NHP DRG): 0.000 fold | Fold Enrichment relative to AAV9, Heart (NHP) ([1]; NGS fold-enrichment, NHP heart): 0.288 fold | Fold Enrichment relative to AAV9, Liver DNA (NHP) [1, 4]: 0.260 fold | Fold Enrichment relative to AAV9, Liver RNA (NHP) [1, 5]: 0.000 fold | Fold Enrichment relative to AAV9, Muscle (NHP) [1, 6]: 0.219 fold

KAETGSGSPHSKAQNQQT
Fold Enrichment relative to AAV9, Brain (Mouse) (brain; mouse brain): 132.940 fold | Fold Enrichment relative to AAV9, Brain (NHP) [1, 14]: 52.219 fold | Fold Enrichment relative to AAV9, DRG (NHP) ([1]; NHP DRG): 0.000 fold | Fold Enrichment relative to AAV9, Heart (NHP) ([1]; NHP heart): 0.047 fold | Fold Enrichment relative to AAV9, Liver DNA (NHP) ([1]; NHP liver, DNA): 0.188 fold | Fold Enrichment relative to AAV9, Liver RNA (NHP) ([1]; NHP liver, RNA): 0.009 fold | Fold Enrichment relative to AAV9, Muscle (NHP) ([1]; NHP muscle): 0.581 fold

KTINGSGSPHSKAQNNDQ
Fold Enrichment relative to AAV9, Brain (Mouse) (brain; mouse brain): 59.664 fold | Fold Enrichment relative to AAV9, Brain (NHP) [1, 14]: 53.226 fold | Fold Enrichment relative to AAV9, DRG (NHP) ([1]; NHP DRG): 0.000 fold | Fold Enrichment relative to AAV9, Heart (NHP) ([1]; NHP heart): 0.000 fold | Fold Enrichment relative to AAV9, Liver DNA (NHP) ([1]; NHP liver, DNA): 0.046 fold | Fold Enrichment relative to AAV9, Liver RNA (NHP) ([1]; NHP liver, RNA): 0.593 fold | Fold Enrichment relative to AAV9, Muscle (NHP) ([1]; NHP muscle): 0.000 fold

KTINGGGSPHSKAQTQQI
Fold Enrichment relative to AAV9, Brain (Mouse) (brain; [7]): 54.199 fold | Fold Enrichment relative to AAV9, Brain (Mouse) (brain; [2]): 54.199 fold | Fold Enrichment relative to AAV9, Brain (NHP) [1, 3]: 92.345 fold | Fold Enrichment relative to AAV9, DRG (NHP) [1, 8]: 0.000 fold | Fold Enrichment relative to AAV9, DRG (NHP) ([1]; NGS fold-enrichment, NHP DRG): 0.000 fold | Fold Enrichment relative to AAV9, Heart (NHP) ([1]; NGS fold-enrichment, NHP heart): 0.000 fold | Fold Enrichment relative to AAV9, Liver DNA (NHP) [1, 4]: 0.023 fold | Fold Enrichment relative to AAV9, Liver RNA (NHP) [1, 5]: 0.000 fold | Fold Enrichment relative to AAV9, Muscle (NHP) [1, 6]: 0.000 fold | Fold Enrichment relative to AAV9, Brain (NHP) [1, 9]: 92.345 fold | Fold Enrichment relative to AAV9, Heart (NHP) [1, 10]: 0.000 fold | Fold Enrichment relative to AAV9, Liver DNA (NHP) [1, 11]: 0.023 fold | Fold Enrichment relative to AAV9, Liver RNA (NHP) [1, 12]: 0.000 fold | Fold Enrichment relative to AAV9, Muscle (NHP) [1, 13]: 0.000 fold

KTINGSGSPHSKAQGAIT
Fold Enrichment relative to AAV9, Brain (Mouse) (brain; mouse brain): 95.696 fold | Fold Enrichment relative to AAV9, Brain (NHP) [1, 14]: 57.627 fold | Fold Enrichment relative to AAV9, DRG (NHP) ([1]; NHP DRG): 0.000 fold | Fold Enrichment relative to AAV9, Heart (NHP) ([1]; NHP heart): 0.000 fold | Fold Enrichment relative to AAV9, Liver DNA (NHP) ([1]; NHP liver, DNA): 0.161 fold | Fold Enrichment relative to AAV9, Liver RNA (NHP) ([1]; NHP liver, RNA): 0.594 fold | Fold Enrichment relative to AAV9, Muscle (NHP) ([1]; NHP muscle): 0.000 fold
